The values that follow come from patent US6444832B1, “Amino alcohol derivatives, method of producing said derivatives and medicaments containing them” (priority 1995, dated 2002).

SMILES strings stand for the structures.

The assay concerns primary osteoblastic cells of foetal rat calvariae. Description: DNA synthesis assay in primary cultures of osteoblasts from fetal rat calvariae (3H-thymidine incorporation). The assay is classed as cell-based. As to conditions: 1 μg/ml; 24 hours incubation, methyl-3H-thymidine during the last 3 hours; medium containing BSA control = 100%. As to the method:
Compounds of formula (I) were examined in a DNA synthesis assay in primary cultures of osteoblasts from fetal rat calvariae. The experiments were carried out in accordance with Pfeilschifter et al., Endocrinology 126, 703 (1990).
Primary osteoblasts were isolated from foetal rat calvariae by sequential digestion with collagenase. In this process 5 cell fractions were obtained. A pool from the cell fractions 3-5 were cultured in vitro. The cells were cultured in an incubator at a relative air humidity of 95%, a CO2 content of 5% and a temperature of 37° C. The test substances were examined in the cultures of the first, second or third cell passage. For the examinations the cells were sown at a cell count of 7×10^3 cells (in 100 μl culture medium)/well in microtitre plates at least 76 hours before applying the test substances. MEM Dulbecco (plus 4.5 g/l glucose plus 3.7 g/l NaHCO3 without glutamine) was used as the culture medium to which 5% foetal calf serum (FCS) and […] penicillin/streptomycin had been added. Immediately before addition of the test substances to the cell culture the medium was replaced by 150 μl medium which contained 1 mg/ml bovine serum albumin (BSA) instead of FCS. Test substances were added at the desired concentrations to the medium containing BSA. TGFβ1 (transforming growth factor β1) at concentrations of 0.1-0.2 ng/ml were also examined as a positive control. Three determinations were carried out per (positive) control or substance concentration. The cell cultures were incubated for 24 hours with test substances, a thymidine probe (1 μCi methyl-^3H-thymidine in 20 μl PBS solution) being additionally present during the last 3 hours. At the end of the incubation period the cell cultures were washed three times with 0.9% saline solution and subsequently admixed with 100 μl liquid scintillator each time (OptiPhase Supermix TM®). Afterwards the radioactivity incorporated into the DNA was measured in cpm in a liquid scintillation counter (1450 MicroBeta®). Cell cultures which had only received medium containing BSA served as controls (100%).
A general note: Uptake of a labelled nucleoside into DNA is a usual measure of proliferation.
For `CC/C=C\C/C=C\C/C=C\CCCCCCCC(=O)N[C@@H](CO)CCCC` (stereo in doubt) [Example 9], the “Rate of DNA synthesis of primary osteoblastic cells of foetal rat calvariae in percent compared to the control (=100%)” value is on record as 367%.

As for `CCCCC/C=C\C/C=C\CCCCCCCC(=O)N[C@@H](CO)CCCC` (stereo in doubt) [Example 10], the “Rate of DNA synthesis of primary osteoblastic cells of foetal rat calvariae in percent compared to the control (=100%)” value is recorded as 475%.

As to `CCCCC/C=C\C/C=C\CCCCCCCC(=O)N[C@H](CC)CO` (stereo in doubt) [Example 27], the “Rate of DNA synthesis of primary osteoblastic cells of foetal rat calvariae in percent compared to the control (=100%)” value is on record as 252%.

With `CCCCCC/C=C\CCCCCCCC(=O)NC(CO)CCCC` (stereo not drawn) [Example 11], the “Rate of DNA synthesis of primary osteoblastic cells of foetal rat calvariae in percent compared to the control (=100%)” value is listed as 191%.

Regarding `CCCC/C=C\CCCCCCCC(=O)NC(CO)CCCC` (stereo not drawn) [Example 19], the “Rate of DNA synthesis of primary osteoblastic cells of foetal rat calvariae in percent compared to the control (=100%)” value amounted to 298%.

On to `CCCCCCCCC#CCCCCCCCC(=O)NC(CO)CCCC` (stereo not drawn) [Example 20], for which the “Rate of DNA synthesis of primary osteoblastic cells of foetal rat calvariae in percent compared to the control (=100%)” value is recorded as 250%.

For the compound `CCCCCCCC/C=C/CCCCCCCC(=O)NC(CO)CCCC` (stereo not drawn) [Example 21], the “Rate of DNA synthesis of primary osteoblastic cells of foetal rat calvariae in percent compared to the control (=100%)” value was found to be 188%.

`CCCCC/C=C\C/C=C\CCCCCCCC(=O)NC(CO)CCCC` (stereo not drawn) [Example 24]: the “Rate of DNA synthesis of primary osteoblastic cells of foetal rat calvariae in percent compared to the control (=100%)” value is listed as 223%.

Regarding `CCCCCCCC/C=C\CCCCCCCC(=O)NC(CO)CCCC` (stereo not drawn) [Example 26], the “Rate of DNA synthesis of primary osteoblastic cells of foetal rat calvariae in percent compared to the control (=100%)” value is recorded as 296%.
